The source made the active and inactive calls. Rule as the data show it, for most assays here: actives have a measured EC50 and inactives only a lower limit.
What was measured:
[1] = target: Latent membrane protein 1 (Human herpesvirus 4 (strain B95-8), UniProt P03230); assay: TES1-eGFP NF-kB reporter inhibition versus Tet-On dsRED, dose response, selectivity assay for LMP1 NF-kB inhibitor project, imaging, HEK293T, dual-color eGFP/dsRED, cherry-picks (AID 588398); format: functional, cell-based
Latent membrane protein 1, sequence (P03230 whole entry): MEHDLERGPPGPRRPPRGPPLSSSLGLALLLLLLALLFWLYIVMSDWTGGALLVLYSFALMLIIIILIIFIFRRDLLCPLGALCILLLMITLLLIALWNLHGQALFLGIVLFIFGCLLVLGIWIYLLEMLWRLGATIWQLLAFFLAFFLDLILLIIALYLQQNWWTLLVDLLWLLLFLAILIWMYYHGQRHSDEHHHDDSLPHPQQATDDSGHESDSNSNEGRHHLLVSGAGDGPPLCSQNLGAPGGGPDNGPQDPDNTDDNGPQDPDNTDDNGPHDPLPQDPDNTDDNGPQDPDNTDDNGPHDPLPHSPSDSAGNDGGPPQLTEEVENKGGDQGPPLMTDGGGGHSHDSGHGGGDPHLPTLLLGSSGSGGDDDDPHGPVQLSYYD

HEK293 = assay: inhibitors of LMP1-driven NF-kB reporter, dose response, cell-based, HEK293, luciferase, cherry-pick (AID 588343); format: functional; conditions: Homo sapiens
[2] = cytotoxicity in HEK-293T cells, dose response, cytotoxicity control for BCR NF-kB inhibitor project, luminescence, B-cell screen hits (AID 489021); format: functional, cell-based;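 also: HEK-293T cells carrying an NF-kB luciferase reporter; cells exposed to compound for about 14 hours before viability readout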
[3] = target: Potassium voltage-gated channel subfamily KQT member 2 (Rattus norvegicus, UniProt O88943); assay: KCNQ2 potassium channel inhibitors, dose response, cell-based, automated electrophysiology, set II, rat KCNQ2 (AID 588637); format: functional
Potassium voltage-gated channel subfamily KQT member 2, sequence (O88943 whole entry): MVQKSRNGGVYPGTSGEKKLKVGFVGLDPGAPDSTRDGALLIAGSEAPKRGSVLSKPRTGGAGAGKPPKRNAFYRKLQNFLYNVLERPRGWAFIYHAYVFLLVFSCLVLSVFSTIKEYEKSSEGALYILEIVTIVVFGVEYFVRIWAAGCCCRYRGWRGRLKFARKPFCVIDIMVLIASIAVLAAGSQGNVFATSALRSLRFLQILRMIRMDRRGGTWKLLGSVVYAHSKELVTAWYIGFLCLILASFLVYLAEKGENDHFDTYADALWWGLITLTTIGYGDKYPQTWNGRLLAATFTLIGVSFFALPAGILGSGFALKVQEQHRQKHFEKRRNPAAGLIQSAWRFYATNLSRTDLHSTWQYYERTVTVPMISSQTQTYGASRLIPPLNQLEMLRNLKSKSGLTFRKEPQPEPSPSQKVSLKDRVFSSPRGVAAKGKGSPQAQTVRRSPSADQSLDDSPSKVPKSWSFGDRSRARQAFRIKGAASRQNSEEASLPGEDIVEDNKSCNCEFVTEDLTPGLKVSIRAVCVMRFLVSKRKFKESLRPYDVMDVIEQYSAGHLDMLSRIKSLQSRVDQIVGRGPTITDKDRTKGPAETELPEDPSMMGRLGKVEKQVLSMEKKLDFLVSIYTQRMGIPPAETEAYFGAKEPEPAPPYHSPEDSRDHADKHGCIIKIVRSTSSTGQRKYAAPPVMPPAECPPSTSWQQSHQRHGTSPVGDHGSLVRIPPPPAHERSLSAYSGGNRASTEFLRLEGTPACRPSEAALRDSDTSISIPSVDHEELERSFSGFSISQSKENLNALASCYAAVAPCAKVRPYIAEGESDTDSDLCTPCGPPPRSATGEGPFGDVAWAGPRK

Vero = assay: cells; format: functional; conditions: Chlorocebus sabaeus
[4] = NIH-3T3 fibroblast cytotoxicity, dose response, cytotoxicity control, cell-based, fluorescence, Alamar Blue, secondary assay (AID 2327); format: functional;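 also: NIH-3T3 mouse fibroblasts cultured with fluconazole at 8 µg/mL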
[5] = C. albicans growth with fluconazole, confirmation, fluorescence, retest (AID 2467); format: functional, cell-based
[6] = target: ATP-dependent molecular chaperone HSP82 (Candida albicans (strain WO-1) (Yeast), UniProt C4YTQ8); assay: loss of DOC-induced GRE-beta-galactosidase reporter signal, dose response, Hsp90 inhibitor project, S. cerevisiae, luminescence (AID 2400); format: functional, cell-based;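 also: beta-galactosidase luminescence from glucocorticoid response element reporter as proxy for Hsp90 function; inhibitor potency where signal loss means Hsp90 inhibition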
ATP-dependent molecular chaperone HSP82, sequence (C4YTQ8 whole entry): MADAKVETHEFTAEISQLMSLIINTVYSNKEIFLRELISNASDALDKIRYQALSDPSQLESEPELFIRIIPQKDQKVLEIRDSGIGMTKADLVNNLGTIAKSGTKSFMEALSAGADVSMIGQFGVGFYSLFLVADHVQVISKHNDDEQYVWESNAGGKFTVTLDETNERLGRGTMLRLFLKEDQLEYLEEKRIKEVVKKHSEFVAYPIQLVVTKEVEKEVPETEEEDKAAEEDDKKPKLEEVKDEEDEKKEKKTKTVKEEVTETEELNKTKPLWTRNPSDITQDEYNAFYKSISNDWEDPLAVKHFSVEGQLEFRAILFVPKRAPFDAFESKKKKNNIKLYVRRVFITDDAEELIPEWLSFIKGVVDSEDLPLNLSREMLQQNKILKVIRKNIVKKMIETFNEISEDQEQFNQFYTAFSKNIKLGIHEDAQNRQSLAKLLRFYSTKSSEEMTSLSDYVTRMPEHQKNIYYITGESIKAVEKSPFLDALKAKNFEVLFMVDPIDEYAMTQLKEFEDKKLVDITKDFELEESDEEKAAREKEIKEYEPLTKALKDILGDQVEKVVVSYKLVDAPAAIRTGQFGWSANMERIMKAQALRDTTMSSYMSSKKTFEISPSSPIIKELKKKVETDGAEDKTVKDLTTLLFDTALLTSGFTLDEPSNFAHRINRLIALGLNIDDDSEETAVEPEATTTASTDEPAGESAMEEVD

[7] = target: Serine/threonine-protein phosphatase (Candida dubliniensis (strain CD36 / CBS 7987 / NCPF 3949 / NRRLY-17841) (Yeast), UniProt B9W6M3); assay: calcineurin pathway inhibitors in yeast reporter, dose response, S. cerevisiae, CDRE-lacZ, luminescence, secondary (AID 2388); format: functional, cell-based;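 also: yeast reporter cells carrying a calcineurin-responsive lacZ construct stimulated with calcium chloride; luminescent beta-galactosidase reporter signal in whole cells rather than isolated phosphatase activity; potency for inhibition where a drop in reporter signal means calcineurin blockade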
Serine/threonine-protein phosphatase, sequence (B9W6M3 whole entry): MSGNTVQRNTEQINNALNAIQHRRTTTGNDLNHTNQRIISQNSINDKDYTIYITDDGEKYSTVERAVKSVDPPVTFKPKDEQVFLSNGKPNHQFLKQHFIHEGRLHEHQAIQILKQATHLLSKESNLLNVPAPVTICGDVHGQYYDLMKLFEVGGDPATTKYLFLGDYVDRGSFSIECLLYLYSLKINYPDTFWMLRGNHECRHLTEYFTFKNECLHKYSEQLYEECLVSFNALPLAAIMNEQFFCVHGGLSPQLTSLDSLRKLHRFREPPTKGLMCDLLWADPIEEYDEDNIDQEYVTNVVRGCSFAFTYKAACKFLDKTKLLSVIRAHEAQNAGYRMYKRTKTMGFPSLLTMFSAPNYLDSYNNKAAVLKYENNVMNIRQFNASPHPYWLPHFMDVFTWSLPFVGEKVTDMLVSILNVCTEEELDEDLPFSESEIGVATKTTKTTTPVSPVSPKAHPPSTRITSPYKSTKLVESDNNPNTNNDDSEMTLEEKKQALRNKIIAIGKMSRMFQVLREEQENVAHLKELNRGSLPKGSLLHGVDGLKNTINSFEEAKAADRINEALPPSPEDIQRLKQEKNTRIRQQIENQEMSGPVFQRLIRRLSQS

Melanocortin receptor 4 = Melanocortin receptor 4 (Homo sapiens, UniProt P32245); assay: MC4R antagonist potency on cAMP, dose response, cell-based, TR-FRET, biased antagonists (AID 602298); format: functional;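 also: antagonist potency against agonist-stimulated cAMP production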
Melanocortin receptor 4, sequence (P32245 whole entry): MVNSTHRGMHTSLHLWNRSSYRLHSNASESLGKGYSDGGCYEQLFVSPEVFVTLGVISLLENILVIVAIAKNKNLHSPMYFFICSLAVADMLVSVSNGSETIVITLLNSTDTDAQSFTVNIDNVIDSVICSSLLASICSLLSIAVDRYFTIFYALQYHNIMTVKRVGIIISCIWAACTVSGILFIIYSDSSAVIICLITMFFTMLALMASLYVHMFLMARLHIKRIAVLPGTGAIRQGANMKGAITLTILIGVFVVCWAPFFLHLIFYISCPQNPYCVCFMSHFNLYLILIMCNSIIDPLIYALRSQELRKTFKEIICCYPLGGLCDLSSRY

[8] = nonselective inhibitors of cellular cAMP signaling, dose response, counter-screen for MC4R biased antagonist project, cell-based, TR-FRET cAMP detection (AID 602305); format: functional;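 also: U2OS cells stimulated with forskolin near its EC80 as the cAMP inducer; potency is for inhibition of forskolin-stimulated cAMP signaling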
[9] = CAL PDZ domain peptide-binding inhibitors, dose response, biochemical, fluorescence polarization, untagged CAL PDZ, cherry-pick, set 2 (AID 602254); format: functional
[10] = cytotoxicity toward DRD oncogenic fibroblasts, dose response, cell-based, non-viral oncogenic, luminescence (AID 1934); format: functional; conditions: Homo sapiens
BJ [11] = assay: cells; format: functional, cell-based; conditions: Homo sapiens
[12] = Luminescence Cell-Based Dose Confirmation HTS to Identify Inhibitors of Platelet Dense Granule Release. [Related pubchem assays: 1663 (Primary HTS), 1678 (Summary of Project)]; format: functional
BJ [13] = assay: cytotoxicity toward BJ-TERT fibroblasts, dose response, cell-based, RAS-independent, luminescence (AID 1933); format: functional; conditions: Homo sapiens
BJ [14] = assay: cytotoxicity toward Ras-transformed BJeLR fibroblasts, dose response, cell-based, alamar blue fluorescence, cherrypicked samples (AID 2631); format: functional; conditions: Homo sapiens;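 also: confirmatory dose-response assay in RAS-dependent BJ fibroblasts engineered with TERT, LT and ST, with cytotoxicity read by fluorescence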
[15] = target: Luciferin 4-monooxygenase (Photinus pyralis, UniProt P08659); assay: firefly luciferase enzyme inhibitors, dose response, biochemical, luminescence (AID 1891)
Luciferin 4-monooxygenase, sequence (P08659 whole entry): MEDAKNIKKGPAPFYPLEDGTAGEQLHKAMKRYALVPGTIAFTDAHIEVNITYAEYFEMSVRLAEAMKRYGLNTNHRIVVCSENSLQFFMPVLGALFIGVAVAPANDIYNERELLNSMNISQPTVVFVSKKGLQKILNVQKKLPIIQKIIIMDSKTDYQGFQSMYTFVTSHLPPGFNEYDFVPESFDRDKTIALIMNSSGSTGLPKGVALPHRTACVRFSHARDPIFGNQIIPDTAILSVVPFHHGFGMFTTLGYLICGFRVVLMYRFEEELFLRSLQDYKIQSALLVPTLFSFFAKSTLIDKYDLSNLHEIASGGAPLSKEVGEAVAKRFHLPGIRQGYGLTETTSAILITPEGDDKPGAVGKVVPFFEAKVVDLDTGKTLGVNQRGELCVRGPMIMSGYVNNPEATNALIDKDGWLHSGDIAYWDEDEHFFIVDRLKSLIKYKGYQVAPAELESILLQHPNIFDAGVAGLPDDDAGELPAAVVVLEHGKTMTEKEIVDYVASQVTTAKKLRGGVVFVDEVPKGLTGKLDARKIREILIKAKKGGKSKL

BJ [16] = assay: cytotoxicity toward BJ-TERT-LT-ST fibroblasts, dose response, cell-based, RAS-independent, luminescence (AID 1935); format: functional; conditions: Homo sapiens;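 also: BJ fibroblasts immortalized with TERT plus LT and ST oncogenes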

COc1cc(-c2[nH]c(C(=O)NCC3CCCO3)cc3c4ccccc4nc2-3)cc(OC)c1OC (stereo unspecified)
AC50 [1]: 44.3 µM (active)
AC50 (HEK293): 37.8 µM (active)
IC50 [2]: 51.8 µM (inactive)

COc1cc(C(=O)Nc2cccc(C)c2C)c(Br)c(OC)c1OC
IC50 [3]: 0.633 µM (active)

O=C1/C(=C/c2ccncc2)SC(=S)N1Cc1ccccc1
AC50 [1]: 30.1 µM (active)
CC50 (Vero): > 25 µM (active)
AC50 (HEK293): 0.678 µM (active)

COc1ccc(N(CC(=O)Nc2ccccc2C(N)=O)S(=O)(=O)c2ccc(C)c([N+](=O)[O-])c2)cc1
EC50 [4]: > 150 µM (inactive)
EC50 [5]: 0.095 µM (active)
EC50 [6]: > 160 µM (inactive)
EC50 [7]: > 180 µM (inactive)

CCOc1ccc(C(=O)CCC(=O)NCC(=O)OCc2ccccc2)cc1OCC
IC50 (Melanocortin receptor 4): > 64.6 µM (inactive)
IC50 [8]: > 64.6 µM (inactive)

COCCSc1nnc(NC(=O)Cc2ccc(OC)cc2)s1
AC50 [9]: 101 µM (active)

COc1cccc(C(=O)Nc2ccc(N3CCCC3)cc2)c1
EC50 [10]: 4.29 µM (active)
EC50 (BJ [11]): 3.26 µM (active)
EC50 [12]: 1.2 µM (active)
EC50 (BJ [13]): 9.4 µM (active)
EC50 (BJ [14]): 86.1 µM (active)
EC50 [15]: 0.856 µM (active)
EC50 (BJ [16]): 13.8 µM (active)

From ChEMBL document CHEMBL1201862, “PubChem BioAssay data set” (2004)
